Patent US20250114335A1, “METHODS AND COMPOSITIONS FOR THE TREATMENT OF EPILEPSY” (ARIZONA BOARD OF REGENTS ON BEHALF OF THE UNIVERSITY OF …, priority 2022, published 2025)
Several values for one entry are separate records, joined by “and”; a condition that tells them apart may be missing. Identical values can stand only once.

Experiments:
[1] = tested on: B6-D/+ (Scn8a-N1768D) adult mice; details: CBD-treated B6-D/+ males, comparison; cited from earlier work
[2] = tested on: B6-D/D (Scn8a-N1768D) juvenile mice; details: CBD-treated B6-D/D males, comparison; cited from earlier work
[3] = tested on: B6-D/+ (Scn8a-N1768D) adult mice; test: Survival and seizure frequency, adult B6-D/+ mice followed for the entire lifespan; type: in vivo, mouse; parameters: reduction in post-onset seizure frequency: concentration or dose not given beside the values; details: for observed standard effect size, Kaplan-Meier survival: treated versus untreated
Source text: (§1) Mouse strains: The C57BL/6J-N1768D congenic mouse (B6-D/+) was used for phenotyping, RNAseq, and BBB studies. In addition, a hybrid strain that was produced by backcross breeding to transfer the Scn8a-N1768D allele from the B6 to the C3H/HeJ strain background was used to further assess the effect of CND on survival and seizure frequency. After constructing an F1 by crossing male B6-D/+ heterozygotes to female C3H/HeJ, five rounds of backcrossing (N6) produced a […] and 98.5% C3H/HeJ-N1768D line (C3H-D/+). Sister-brother mating maintained the 98.5% C3H background. […] C3H-D/D mice have a delayed seizure onset (˜40-45 days) and an extended survival (65-70 days) with intermittent bouts of TCs (FIG. 1A).
(§2) Phenotyping: Female and male mice on both the B6 and C3H backgrounds were housed in sex-specific groups of 3-4 per cage in a pathogen-free mouse facility with a 14 h light/10 h dark cycle (lights turned on at 5 am). A 24/7 video monitoring system was utilized to collect seizure data, with infrared illumination to monitor behavior during the dark period. Seizures were counted as individual TCs. Adult mice were followed from the age of 6 weeks, a period of time well before seizure onset, in order to identify the day of seizure onset. A seizure bout was defined as a cluster of seizures on consecutive days, and a gap as a seizure-free period of 3 days or more.
(§3) Preparation of CND suspension for injections and oral dosing: Juvenile B6-D/D and adult B6-D/+ mice were given subcutaneous (s.c.) injections with either CND (2-4 mg/kg/day; doses that fall within the FDA-approved range for CND in both adults and children) or vehicle (VEH) (Sigma-Aldrich) (FIG. 1B). Oral dosing of adults was performed by thoroughly mixing 160 μl of suspension containing 1.28 mg of CND or VEH with 5 g of pure (organic) peanut butter in a petri dish. Mice were given 1 g pellet per mouse each day. Pellets were weighed each day to record the amount consumed, and 24/7 video was used to verify that each mouse was consuming the pellet. An average of 0.79 g (±0.36 g) was consumed by an adult mouse (˜20-25 g), corresponding to 9.1±4.2 mg/kg/day. No correlations were found for the amount of CND consumed and lifetime survival or number of TCs.
Survival and seizure frequency studies: B6-D/D mice were injected with CND (n=10) or VEH (n=10) at 15 days of age (P15) and followed to monitor TCs by 24/7 video recording until death (FIG. 1B). A separate set of 10 B6-D/D mice was administered a daily s.c. injection of 25 mg/kg/day phenytoin (PHT) suspension or VEH (US Pharmacopeia, Sigma-Aldrich). […] Mice were monitored for seizures by 24/7 video recording until the time of death.

[4] = tested on: C3H-D/D (Scn8a-N1768D) adult mice; test: Survival and seizure frequency, adult C3H-D/D mice followed until death; type: in vivo, mouse; details: for #Days survived postTC / #TCs / #TCs/day (PostTC) / #gaps (av) / Age at Death / Age at Onset / gap days / mean gap length: Treated; for observed standard effect size, Kaplan-Meier survival: treated versus untreated
Source text: as §1, §2, §3
Data for the untreated mice were previously reported. Table 1 also provides C3H-D/D summary statistics for female untreated (N=15) and treated (N=15) and male untreated (N=27) and treated (N=16) monitored until the time of death.

[5] = tested on: B6-D/D (Scn8a-N1768D) juvenile mice; test: Survival and seizure frequency, B6-D/D juvenile mice; type: in vivo, mouse; details: for #TCs / #TCs/day (Life) / #TCs/day (PostTC) / #gaps / Age at Onset / Days with TCs / gap days / mean gap length / Age at Death: Treated; for Age at Death: daily s.c. injection
Source text: as §1, §2, §3
Survival and seizure frequency studies: B6-D/D mice were injected with CND (n=10) or VEH (n=10) at 15 days of age (P15) and followed to monitor TCs by 24/7 video recording until death (FIG. 1B). A separate set of 10 B6-D/D mice was administered a daily s.c. injection of 25 mg/kg/day phenytoin (PHT) suspension or VEH (US Pharmacopeia, Sigma-Aldrich). Oral administration of CND or VEH was initiated at the time of seizure onset (range P75-P85) for adult B6-D/+ females (N=10) and males (N=10) (FIG. 1B). Mice were monitored for seizures by 24/7 video recording until the time of death.

[6] = tested on: hippocampal gene expression; test: RNAseq and pathway analysis of hippocampal tissue, B6-D/D juveniles; type: in vivo, mouse
Protocol: (§4) Transcriptome studies: B6-D/D and wild-type (+/+) (n=3) were administered CND or VEH by s.c. injection for a period of 5 days starting at P15 and sacrificed for removal of hippocampal tissue (n=12) (FIG. 1B). Adult B6-D/+ male (n=3) mice were administered CND or VEH pellets as described above at the time of seizure onset and monitored for seizures for an extended period before sacrifice and removal of hippocampal tissue (100-160 d) (i.e., to match the age at which a VEH-treated male B6-D/+ experience ˜20 TCs) (FIG. 1B).
(§5) RNA sequencing: Hippocampal tissues from 21 mice were obtained according to a sampling strategy that compared (1) untreated (VEH only) and treated B6-D/D (n=3) with age-matched B6-+/+ controls (n=3 per group), (2) untreated (VEH only) male B6-D/+ mice that had experienced ˜20 TCs (n=3 per group) with age-matched B6-+/+ controls (n=3 per group), and (3) male B6-D/+ mice that were treated with CND for an extended period (n=3 per group). Brains of treated and untreated mice were dissected to yield tissue samples from the hippocampus. Bulk tissue was stored in RNALater (Qiagen, Valencia, CA) at −80 degrees centigrade. The technique for analyzing hippocampal gene expression was performed. Briefly, RNA was isolated from hippocampal tissue, and initial QC was performed. Libraries were constructed using a stranded mRNA-Seq Kit, and average fragment size was assessed. After concentrations were determined with an adaptor-specific qPCR kit, equimolar samples were pooled and clustered for sequencing on a Novaseq instrument (Illumina). Sample data were demultiplexed, trimmed, and quality filtered, and Fastq files were splice-aligned against the […] reference genome using STAR aligner version 2.5.2b. Gene expression counts were obtained using htseq-count version 0.6.1. Both splice alignment and counting were performed with Ensembl Annotation of the NCBI reference genome, and raw counts were analyzed with edgeR version 3.16.5.
(§6) Data and pathway analysis: Results of statistical summaries were generally expressed as mean±SD. Kaplan-Meier survival curves were used to test for differences in survival. […] A ‘perturbation signature’ approach was used to identify genome-wide differences in transcript abundance between transgenic mice (i.e., D/+, D/D, or +/+) that were untreated (VEH) or treated with CND. Differential expression analysis was performed. Briefly, the exactTest function was utilized in edgeR, and gene expression counts were first normalized using the calcNormFactors function. DEG analysis was performed on treatment versus control groups at two different ages using three biological replicates per group, which has been shown in power analyses to be sufficient to yield a true positive rate greater than 80% under the conditions used here. Multidimensional scaling (MDS) plots were constructed using the ‘plotMDS’ function in edgeR, which plots samples on a 2D scatterplot so that distances on the plot approximate the typical log 2 fold changes between samples. […] Rather than focusing on any single gene, bioinformatic analyses of our RNAseq data identified the most statistically significant biological pathways that were enriched given the set of DEGs in each experiment.

[7] = tested on: hippocampal gene expression; test: RNAseq and pathway analysis of hippocampal tissue, B6-D/+ adult males; type: in vivo, mouse
Protocol: as §4, §5, §6

[8] = B6-D/D juveniles, listed as CDN
[9] = CND-treated B6-D/D, FDR-adjusted P-value <0.05
[10] = treated juveniles, FDR cutoff 0.25

## C=C(C)[C@@H]1CCC(C)=C[C@H]1c1c(O)cc(CCCCC)cc1O [CBD]
[1]
  standard effect size, survival: 0.50
[2]
  standard effect size, survival: 0.35

## CCOc1nc2cccc(C(=O)O)c2n1Cc1ccc(-c2ccccc2-c2nnn[nH]2)cc1 [CND, candesartan]
[3]; B6-D/+ females
  increase in survival, treated versus untreated: 34.7%
  reduction in post-onset seizure frequency: 88.9%
  observed standard effect size, Kaplan-Meier survival: 0.59
[3]; B6-D/+ males
  increase in survival, treated versus untreated: 48.9%
  mean days surviving longer than untreated: 44.5 days
  reduction in post-onset seizure frequency: 56.5% and 59.1%
  observed standard effect size, Kaplan-Meier survival: 0.69
[3]; B6 Females (D/+), Treated
  #Days survived postTC: 76.4 days
  #TCs: 14.3 TCs
  #TCs/day (PostTC): 0.24 TCs/day
  Age at Onset: 91.2 days
  gap days: 34.0 days
  mean gap length: 8.3 days
[3]; B6 Females (D/+), Treated, oral from seizure onset
  Age at Death: 167.6 ± 19.1 days and 167.6 days
[3]; B6 Females (D/+), Treated, gap = seizure-free period of 3 days or more
  #gaps (av): 4.0
[3]; B6 Males (D/+), Treated Early
  #Days survived postTC: 16.8 days
  #TCs: 18.9 TCs
  #TCs/day (PostTC): 2.4 TCs/day
  #gaps (av): 2.6
  Age at Death: 121.6 days
  Age at Onset: 99.2 days
  gap days: 15.0 days
  mean gap length: 6.7 days
[3]; B6 Males (D/+), Treated Late
  #Days survived postTC: 52.7 days
  #TCs: 43.6 TCs
  #TCs/day (PostTC): 1.0 TCs/day
  #gaps (av): 4.0
  Age at Onset: 81.3 days
  gap days: 37.8 days
  mean gap length: 12.4 days
[3]; B6 Males (D/+), Treated Late (oral from seizure onset)
  Age at Death: 135.8 ± 28.4 days and 135.8 days
[4]; C3H Females (D/D)
  #Days survived postTC: 68.9 days
  #TCs: 30.1 TCs
  #TCs/day (PostTC): 0.51 TCs/day
  #gaps (av): 7.5
  Age at Death: 117.4 ± 28.0 days and 117.4 days
  Age at Onset: 48.5 days
  gap days: 44.0 days
  mean gap length: 5.8 days
[4]; C3H Males (D/D)
  #Days survived postTC: 68.9 days
  #TCs: 37.4 TCs
  #TCs/day (PostTC): 0.57 TCs/day
  #gaps (av): 9.8
  Age at Death: 117.1 ± 20.4 days and 117.1 days
  Age at Onset: 48.1 ± 5.1 days and 48.1 days
  gap days: 44.4 days
  mean gap length: 4.7 days
[4]; C3H-D/D females
  increase in survival, treated versus untreated: 47.5%
  reduction in post-onset seizure frequency: 78.4%
  observed standard effect size, Kaplan-Meier survival: 0.83
[4]; C3H-D/D males
  increase in survival, treated versus untreated: 49.2%
  reduction in post-onset seizure frequency: 48.0%
  observed standard effect size, Kaplan-Meier survival: 0.79
[5]; B6-D/D
  days surviving longer than untreated: 6.3 days
[5]; B6-D/D Juveniles
  reduction in seizure frequency: 45.8%
[5]; B6-D/D juveniles
  #TCs: 119.0 TCs
  #TCs/day (Life): 0.09 TCs/day
  #TCs/day (PostTC): 15.4±10.3 TCs/day
  #gaps: 0.9
  Age at Onset: 21.4
  Days with TCs: 7.2 days
  gap days: 4.3 days
  mean gap length: 3.4
  Age at Death: 31.8 ± 2.7 days
[5]; [8]
  Age at Death: 31.8 days
  #TCs/day (PostTC): 15.4 TCs/day
[5]; B6-D/D juveniles, treated versus VEH
  increase in survival of juveniles: 27%
[5]; B6-D/D juveniles, treated versus untreated (VEH only)
  observed standard effect size, Kaplan-Meier survival: 0.79
[6]; B6-D/D Juveniles
  TREATED z-score, upstream regulator ACKR2: −2.00
  TREATED z-score, upstream regulator IL1B: 1.76
  TREATED z-score, upstream regulator PTGER4: −2.43
  TREATED z-score, upstream regulator SIRT1: −2.83
  TREATED z-score, upstream regulator TGFB1: 0.42
  TREATED z-score, upstream regulator TNF: 1.32
  TREATED z-score, upstream regulator lipopolysaccharide: 3.19
[6]; [9]
  number of down-regulated DEGs: 25
  number of up-regulated DEGs: 50
[6]; [10]
  z-score, EIF2 Signaling pathway: 3.2
  z-score, Granzyme A Signaling pathway: −3.4
  z-score, Mitochondrial Dysfunction pathway: −3.8
  z-score, Oxidative Phosphorylation pathway: 5.0
[6]; treated juveniles, FDR≤0.25, 95% CI=3.5-979
  odds ratio, enhancement of ETC gene activation in treated versus untreated: 23 fold
[7]; B6-D/+ Adult males
  TREATED z-score, upstream regulator ERBB2: −2.00
  TREATED z-score, upstream regulator NUPR1: −2.00
  TREATED z-score, upstream regulator PTGS2: -2.8
[7]; CND-treated B6-D/+ adult males
  number of canonical pathways predicted to be activated: 11
  number of canonical pathways predicted to be deactivated: 3
  number of enriched canonical pathways: 14
[7]; CND-treated B6-D/+ males
  number of DEGs: 86
  number of down-regulated DEGs: 10
  number of up-regulated DEGs: 76

## O=C1NC(=O)C(c2ccccc2)(c2ccccc2)N1 [PHT, phenytoin]
[5]; B6-D/D Juveniles
  survival of juveniles (in words): minor increase in survival that did not reach statistical significance
[5]; B6-D/D juveniles
  #TCs: 55.9 TCs
  #TCs/day (Life): 1.9 TCs/day
  #TCs/day (PostTC): 10.2±7.1 TCs/day and 10.2 TCs/day
  #gaps: 1.2
  Age at Onset: 22.2
  Days with TCs: 6.8 days
  gap days: 5.2 days
  mean gap length: 3.5
  Age at Death: 30.1 ± 5.1 days and 30.1 days
